Values quoted from earlier work as cited in patent US20070116643A1, “Novel aryloxypropanamines” (Concert Pharmaceuticals Inc., priority 2005, published 2007).
Structures can show the parent of a compound that is named as a salt.

How the values were obtained:
5-HT reuptake [1] = details: in humans
NE reuptake = details: in humans
5-HT reuptake [2] = details: rodent models
[3] = test system: central monoamine receptors

Structure (SMILES): CNCC[C@H](Oc1cccc2ccccc12)c1cccs1 [Compound A, (S)-N-methyl-3-(naphthalen-1-yloxy)-3-(thiophen-2-yl)propan-1-amine hydrochloride]
- inhibition of 5-HT reuptake (5-HT reuptake [1]): recapitulates the preclinically observed inhibition of 5-HT and NE reuptake
- inhibition of NE reuptake (NE reuptake): recapitulates the preclinically observed inhibition of 5-HT and NE reuptake
- inhibition of neural cell firing / 5-HT reuptake (5-HT reuptake [2]): inhibiting neural cell firing by reducing reuptake of 5-HT
- circulating radioactivity attributable to parent drug, AUC basis (humans, radiolabeled Compound A): approximately 3%
- extent of metabolism (oral administration to humans, predominantly oxidative mechanisms): rapidly and extensively metabolized
- affinity for central monoamine receptors [3]: lacks affinity for central monoamine receptors
